According to US10265327B2, “V1A antagonists to treat phase shift sleep disorders” (Hoffmann-La Roche Inc., priority 2013, dated 2019):

Molecular target: T1, human V1b receptor (hV1b) (Homo sapiens, UniProt P47901)
T1 construct: expressed in transfected cells; host or cells: HEK cells, transient transfection; membrane preparation
T1 sequence (P47901 1-424): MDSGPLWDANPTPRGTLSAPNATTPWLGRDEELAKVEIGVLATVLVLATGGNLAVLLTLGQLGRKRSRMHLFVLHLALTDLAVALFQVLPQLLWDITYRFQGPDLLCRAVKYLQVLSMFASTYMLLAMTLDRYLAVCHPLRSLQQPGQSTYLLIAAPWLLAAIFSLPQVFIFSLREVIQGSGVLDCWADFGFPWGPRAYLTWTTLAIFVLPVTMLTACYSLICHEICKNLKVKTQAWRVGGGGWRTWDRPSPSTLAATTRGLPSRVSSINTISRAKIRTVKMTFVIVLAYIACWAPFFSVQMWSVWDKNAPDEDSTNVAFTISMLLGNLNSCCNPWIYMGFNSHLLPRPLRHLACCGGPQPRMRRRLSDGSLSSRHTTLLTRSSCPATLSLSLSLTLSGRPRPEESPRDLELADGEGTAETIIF
Test: Radioligand binding assay (3H-AVP, SPA), human V1b
Conditions: (n); 1 nM 3H-AVP; read-out: pKi V1b Human (converted)
Description: The test compound was initially dissolved in DMSO at a concentration of 10 mM. Subsequent dilutions were made in assay buffer with a maximum final concentration of 0.2% DMSO.
Recombinant vasopressin V1a (human: hV1a; mouse: mV1a), V1b (human: hV1b) were independently expressed in human embryonic kidney (HEK) cells using transient transfection. The cell membranes expressing the various receptors were prepared by homogenizing (using Polytron homogenizer) the cell culture pellet in lysis buffer (50 mM HEPES, 1 mM EDTA, 10 mM MgCl2, pH 7.4 with protease inhibitors), then centrifuging the resulting suspension at 500 g for 20 min at 4° C. The supernatant was subsequently re-centrifuged at 43,000 g for 1 hour at 4° C. […] The concentration of protein was determined, and the membranes were aliquoted and stored at −80° C. until further use.
All radioligand binding assays were carried out in 96-well plates in the presence of 1 nM ^3H-AVP (vasopressin) radioligand, and 10 concentrations of test compound (ranging from 27 μM-1 nM or 2.7 μM-0.1 nM for hV1a binding). […] Filtration assays were terminated by rapid filtration under vacuum through GF/C filters, presoaked for 5 min with buffer B containing Tris 50 mM, MgCl2 5 mM, 0.1% BSA (pH 7.4), followed by 5×0.4 ml washes of ice-cold buffer B. For both SPA and filtration plates, bound ligand was determined using a Packard Topcount scintillation counter. […]

CN1Cc2cc(Cl)ccc2-n2c(nnc2[C@H]2CC[C@H](Oc3ccccn3)CC2)C1 [Example 1, trans-8-chloro-5-methyl-1-(4-pyridin-2-yloxycyclohexyl)-4,6-dihydro-[1,2,4]triazolo[4,3-a][1,4]benzodiazepine] was tested. Which Ki did it give?
Its Ki is > 31.6 µM.
